Values quoted from earlier work as cited in patent US20130095180A1, “TIME-DELAYED SUSTAINED RELEASE PHARMACEUTICAL COMPOSITION COMPRISING DAPOXETINE FOR ORAL ADMINISTRATION” (NAVIPHARM. CO., LTD., priority 2010, published 2013).

details: background characteristics of the drug

| SMILES | Half Life [h] | Tmax |
| --- | --- | --- |
| CN(C)[C@@H](CCOc1cccc2ccccc12)c1ccccc1 [Dapoxetine, (S)-(+)-N,N-dimethyl-1-phenyl-3-(1-Naphthalenyloxy)-propaneamine] | – | about 1 hour |
| CCCc1nn(C)c2c(=O)[nH]c(-c3cc(S(=O)(=O)N4CCN(C)CC4)ccc3OCC)nc12 [Sildenafil] | 3 to 4 | – |
| CCCc1nc(C)c2c(=O)[nH]c(-c3cc(S(=O)(=O)N4CCN(CC)CC4)ccc3OCC)nn12 [Vardenafil] | 4 to 5 | 0.7 h |

The remaining lines, values ahead:

| Half Life [h] | Tmax | SMILES |
| --- | --- | --- |
| 5 to 11 | 0.3 to 0.5 h | COc1ccc(CN=c2[nH]c(N3CCC[C@H]3CO)ncc2C(=O)NCc2ncccn2)cc1Cl [Avanafil] |
| 7 to 12 | 1 h | CCCOc1ccc(S(=O)(=O)NCCC2CCCN2C)cc1-c1nc2c(CCC)nn(C)c2c(=O)[nH]1 (centres unmarked) [Udenafil] |
